{"source": "a melting point compilation (Tetko et al.; mined from patent text by program, amines drawn as free bases though some values may be those of a salt)", "data": [{"units": {"melting point": "°C"}, "values": [{"smiles": "COc1cc([N+](=O)[O-])c(C(OC(=O)C(Cl)(Cl)Cl)c2ccccc2)c([N+](=O)[O-])c1OC", "note": "(stereo not given)", "melting point": "105 to 106"}, {"smiles": "O=C(O)c1ccc(NCCCCCCCCc2ccccc2)cc1", "melting point": "113 to 115"}, {"smiles": "N#CC1=CC(CF)(CF)Oc2ccc(Br)cc21", "melting point": "105 to 107"}, {"smiles": "CC(=O)NCc1ccc2c(C#N)cn(C3CCN(CCc4ccc(F)cc4)CC3)c2c1", "melting point": "130 to 131"}, {"smiles": "CC1(C)CC(c2ccc[nH]c2=O)c2cc(C#N)ccc2O1", "note": "(stereo not given)", "melting point": "174 to 176"}, {"smiles": "COC(=O)CNC(=O)NCCCCC1CCSS1", "note": "(stereo not given)", "melting point": "62 to 64"}, {"smiles": "CCc1cc2c(cc1Sc1ccc(C(=O)O)cc1)C(C)(C)CCC2(C)C", "melting point": "82 to 83"}, {"smiles": "Fc1ccc(-n2ccc3cc(-c4ccccn4)ccc32)cc1", "melting point": "119 to 121"}, {"smiles": "Cc1oc2c(OC(C)C#N)cccc2c1C", "note": "(stereo not given)", "melting point": "53 to 55"}, {"smiles": "Nc1nc(C2CCN(C(=O)c3ccccc3)CC2)c2ccccc2n1", "melting point": 138}, {"smiles": "N#Cc1ccc(N2CC(CO)OC2=O)cc1", "note": "(stereo not given)", "melting point": 186}, {"smiles": "O=Cc1ccnc(OCC=CCNC(=O)CS(=O)Cc2ccco2)c1", "note": "(stereo not given)", "melting point": "67.6 to 69.9"}, {"smiles": "CN1CCN(c2cccc3ccc(OC(=O)c4ccc(Cl)cc4)cc23)CC1", "melting point": "110 to 111"}, {"smiles": "COC(=O)N(CCCc1ccccc1)[C@H]1CC[C@H](c2ccc(O)cc2)CC1", "melting point": "128 to 133"}, {"smiles": "Cc1ccc(S(=O)(=O)OC[C@H](O)CO)cc1", "melting point": "54 to 59"}, {"smiles": "COc1cc2c(cc1[N+](=O)[O-])N(C)C(=O)CNC2", "melting point": "145 to 149"}, {"smiles": "COc1ccc(C(=O)Sc2ccc(C(=O)O)cc2)cc1C(C)(C)C", "melting point": "220 to 221"}, {"smiles": "CC(C)(C)N1C[C@H](O)C[C@H]1C(=O)NC(=O)OCc1ccccc1", "melting point": "128 to 130"}, {"smiles": "OC[C@@H]1O[C@H](n2c(NC3CC3)nc3c(Cl)c(Cl)c(Cl)cc32)[C@@H](O)[C@H]1O", "melting point": "208 to 209"}, {"smiles": "Cc1cc(Cl)ccc1OCc1nn(C)c(=O)o1", "melting point": "108 to 110"}, {"smiles": "Cc1cnc2c(c1C)CCCC2C(N)=S", "note": "(stereo not given)", "melting point": "163 to 165"}, {"smiles": "CC(C)C(C(=O)O)c1onc(-c2ccccc2)c1-c1ccc(S(N)(=O)=O)cc1", "note": "(stereo not given)", "melting point": "148 to 149"}, {"smiles": "CCCCc1nnc(S(=O)Cc2ccc(OC)cc2)n1Cc1ccc(OC(C(=O)O)c2ccccc2)cc1", "note": "(stereo not given)", "melting point": "74 to 75"}, {"smiles": "CCc1ccc(NCc2ccc(N(C)C)cc2)cc1", "melting point": "64 to 66"}, {"smiles": "COC(=O)C1=C(C)NC(c2c(F)cc(F)cc2F)=NC1c1ccc(F)cc1Cl", "note": "(stereo not given)", "melting point": "112 to 114"}, {"smiles": "CCCNC(=O)C(C)=Cc1ccc2[nH]ccc2c1", "melting point": "92 to 94"}, {"smiles": "CCC(=O)c1cc(C2(c3cccc(-c4cccnc4F)c3)N=C(N)N(C)C2=O)cn1CC(F)(F)F", "note": "(stereo not given)", "melting point": "108 to 110"}, {"smiles": "COc1ccc2cc(Oc3cnc(N)nc3N)c(C(C)C)cc2c1", "melting point": "170 to 172"}, {"smiles": "CCOC(=O)c1c(-c2ccccc2C)c2cc(C)c(Cl)cc2n(C)c1=O", "melting point": "121 to 123"}, {"smiles": "O=CC1(Nc2ccccc2)CCN(Cc2ccccc2)CC1", "melting point": "118 to 119"}, {"smiles": "O=c1c2cc(F)c(N3CCCC3)cc2n(-c2ccc(F)cc2F)c(=O)n1O", "melting point": "232 to 234"}, {"smiles": "COC(=O)c1ccc(OC2=C3N=C4CCCCC4=C3C(Cc3ccc(C)cc3)C=C2)o1", "note": "(stereo not given)", "melting point": "80 to 81"}, {"smiles": "CN1CC[C@@H](c2c(O)cc(O)c3c(=O)cc(-c4cccc(F)c4Br)oc23)[C@@H]1CO", "melting point": "237 to 239"}, {"smiles": "C=CC(=O)OCCCCCCCCOc1ccc(C(=O)O)cc1", "melting point": "157 to 158"}, {"smiles": "CC1(C)CCC(S)(CCOC(=O)CCC(=O)O)CC1", "melting point": "55 to 60"}, {"smiles": "COC(=O)Nc1ccc2ccccc2c1-c1c(P(=O)(c2ccccc2)c2ccccc2)ccc2ccccc12", "melting point": 128}, {"smiles": "Cc1noc(-c2cc3c4ccccc4n(CCCCl)c3cn2)n1", "melting point": "180 to 185"}, {"smiles": "Cc1c(-c2ccccc2)nn(C(C)(C)C(=O)N(C)C)c1Cl", "melting point": "96 to 99"}, {"smiles": "Cc1ccc([N+](=O)[O-])c(C#N)c1", "melting point": "90 to 91"}, {"smiles": "O=[N+]([O-])c1cc(Br)ccc1-c1ccc(Br)cc1[N+](=O)[O-]", "melting point": "143 to 146"}, {"smiles": "CCOC(=O)C(=CNc1ccnn1CC)C(=O)OCC", "melting point": "50 to 53"}, {"smiles": "OC1CCc2c(-c3ccccc3)cccc21", "note": "(stereo not given)", "melting point": "80.5 to 81.5"}, {"smiles": "Cc1c(C(N)=O)oc2c(C(=O)O)cccc2c1=O", "melting point": "> 250"}, {"smiles": "COc1cc(C=CC(=O)Nc2c(-c3ccccc3Cl)c3cc(C)c(C)cc3n(C)c2=O)cc(OC)c1OC(C)=O", "melting point": "259 to 260"}, {"smiles": "CCCCC(=O)N(c1ccn(C)n1)C1CCCCC1", "melting point": "97.5 to 98"}, {"smiles": "COc1ccc(C(=O)CCCCCN2CCC(CNC(=O)c3cc(Cl)c(N)cc3OC)CC2)cc1", "melting point": "133 to 135"}, {"smiles": "CS(=O)(=O)NCCCCC(c1cc(F)ccc1F)S(=O)(=O)c1ccc(Cl)cc1", "note": "(stereo not given)", "melting point": "106 to 107"}, {"smiles": "O=C1NC(=O)C(Sc2ccc3cc(O)ccc3c2)S1", "note": "(stereo not given)", "melting point": "182 to 183"}, {"smiles": "O=[N+]([O-])c1cccc(Oc2cncc(Cl)n2)c1", "melting point": "118 to 119"}, {"smiles": "Cn1cncc1C(O)(c1ccc2c(c1)c(-c1cccc(Cl)c1)cc(=O)n2C)c1nccs1", "note": "(stereo not given)", "melting point": 246}, {"smiles": "C#Cc1ccc2c(c1)C(CCOCCOCCOC)(CCOCCOCCOC)c1cc(C#C)ccc1-2", "melting point": 68}, {"smiles": "CC(C)C(=O)Nc1cccc(-c2ccnc3c(C(=O)c4ccco4)cnn23)c1", "melting point": "189 to 191"}, {"smiles": "CNCCOc1ccc(C(=C(CCO)c2ccccc2)c2ccccc2)cc1", "melting point": "134 to 139"}, {"smiles": "CON=C1C(C)(C)c2cc3nc(SCc4ncc(C)c(OC)c4C)[nH]c3cc2C1(C)C", "melting point": "110 to 112"}, {"smiles": "COC(=O)CC[C@H]1C(=O)N(c2ccc(F)cc2)[C@@H]1c1ccc(O)cc1", "melting point": "136 to 137"}, {"smiles": "COc1ccc2[nH]c3c([N+](=O)[O-])cc([N+](=O)[O-])c(Cl)c3c(=O)c2c1", "melting point": "253 to 254"}, {"smiles": "O=C(CCc1ccccc1)N[C@H]1C[C@H](C(=O)O)Nc2cc(Cl)cc(Cl)c21", "note": "(relative stereo)", "melting point": 188}, {"smiles": "CCN(CC1CCCC1)c1nc2c(cc1CN(Cc1cc(C(F)(F)F)cc(C(F)(F)F)c1)c1nnn(C)n1)c(C)nn2C", "melting point": "84 to 86"}, {"smiles": "O=C(CCN1CCN(c2cccc3[nH]ccc23)CC1)c1csc2ccccc12", "melting point": "83 to 85"}, {"smiles": "Cc1cn([C@@H]2C[C@H](C(=O)OC(c3ccccc3)c3ccccc3)N(CCNC(=O)OCC3c4ccccc4-c4ccccc43)C2)c(=O)n(C(=O)c2ccccc2)c1=O", "melting point": "94 to 98"}, {"smiles": "OCc1cccc2oc3c(c12)CCCC3", "melting point": "43 to 45"}, {"smiles": "CCOC(=O)N(C)CC1CN(c2c(F)cc3c(=O)c(C(=O)O)cn(C4CC4)c3c2F)CCO1", "note": "(stereo not given)", "melting point": "128 to 131"}, {"smiles": "O=C(Nc1ccccc1)c1cccc(-c2ccnc3c(C(=O)c4cccs4)cnn23)c1", "melting point": "211 to 212"}, {"smiles": "CCN(CC)C(=O)Nc1ccc(S(=O)(=O)n2c(=O)n(C3CCCCCC3)c3cc(Cl)ccc32)c(OC)c1", "melting point": 218}, {"smiles": "CN1CC[C@@H](c2c(O)cc(O)c3c(=O)cc(-c4ccccc4F)oc23)[C@@H]1CO", "melting point": "206 to 208"}, {"smiles": "O=C(Nc1ncco1)C1c2ccccc2Oc2ccccc21", "melting point": "232 to 235"}, {"smiles": "c1ccc(Oc2ccc(N3CCNCC3)nc2)cc1", "melting point": "80.5 to 83"}, {"smiles": "O=C1/C(=C/c2c[nH]c3ncc(Cl)cc23)N=C(Oc2ccccc2)N1c1ccccc1", "melting point": 287}, {"smiles": "CCCCCc1ccccc1C=CC=C1SC(=S)N(CC(=O)O)C1=O", "melting point": "203 to 207"}, {"smiles": "C=Cc1ccc(NC(C)=O)nc1", "melting point": "120 to 121"}]}]}
